According to the supplement of paper PMC4862054:

Key:
Conditions in all cases: incubation time: 72 h
[1] = system: MDA-MB-231; experiment: drug sensitivity score (DSS), CellTox Green (DSS (AUC-based score)); higher = stronger drug effect (viability inhibition or cytotoxicity); extreme values may be limits of the assay
In short: (§1)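 The drug sensitivity score was computed from the area under the fitted dose-response curve. Breast cancer cell lines in 20 µl suspension went into 384-well plates holding compound at 5 concentrations (10-fold steps over a 10,000-fold, compound-specific range) for 72 h of incubation. CellTox Green fluorescence (485/520 nm) was read before CellTiter-Glo luminescence, the latter after 10 min at room temperature, and each plate was normalised to 0.1 % DMSO and a positive kill control.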

[2] = system: CAL-85-1; experiment: as above
In short: as §1

[3] = system: DU-4475; experiment: as above
In short: as §1

[4] = system: MFM-223; experiment: as above
In short: as §1

[5] = system: CAL-51; experiment: as above
In short: as §1

[6] = system: MDA-MB-436; experiment: as above
In short: as §1

[7] = system: MDA-MB-453; experiment: as above
In short: as §1

[8] = system: MCF-10A; experiment: as above
In short: as §1

[9] = system: CAL-120; experiment: as above
In short: as §1

[10] = system: HCC1937; experiment: as above
In short: as §1

[11] = system: HCC1143; experiment: as above
In short: as §1

[12] = system: BT-474; experiment: as above
In short: as §1

[13] = system: HCC1599; experiment: as above
In short: as §1

[14] = system: BT-549; experiment: as above
In short: as §1

[15] = system: CAL-85-1; experiment: normalised viability (% of control), CellTiter-Blue; higher = more viable cells (about 100 = DMSO control)
In short: (§2)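 Normalised viability is given for a single listed concentration of the series. In 384-well plates, breast cancer cell lines were incubated 72 h with compound, then read with CellTiter-Blue (2 h, 37 °C) at 560/590 nm. Per-plate scaling set vehicle to 100 and a positive kill control to 0, with Z'-factor quality control.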

[16] = system: CAL-148; experiment: as above
In short: as §2

[17] = system: HDQ-P1; experiment: as above
In short: as §2

[18] = system: MDA-MB-436; experiment: as above
In short: as §2

[19] = system: MDA-MB-453; experiment: as above
In short: as §2

[20] = system: MDA-MB-468; experiment: as above
In short: as §2

[21] = system: CAL-120; experiment: as above
In short: as §2

[22] = system: HCC1937; experiment: as above
In short: as §2

[23] = system: HCC1143; experiment: as above
In short: as §2

[24] = system: BT-474; experiment: as above
In short: as §2

[25] = system: BT-549; experiment: as above
In short: as §2

CO[C@H]1C[C@@H]2CC[C@@H](C)[C@@](O)(O2)C(=O)C(=O)N2CCCC[C@H]2C(=O)O[C@H]([C@H](C)C[C@@H]2CC[C@@H](O)[C@H](OC)C2)CC(=O)[C@H](C)/C=C(\C)[C@@H](O)[C@@H](OC)C(=O)[C@H](C)C[C@H](C)/C=C/C=C/C=C/1C [Sirolimus]
Conditions	drug sensitivity score
[1]	0
[2]	0
[3]	0
[4]	0
[5]	0
[6]	0
[7]	0
[8]	0
[9]	0
[10]	1.4
[11]	0
[12]	0
[13]	0
[14]	0

normalised viability [%]
Conditions	0.3 nM	1 nM	3 nM	10 nM	100 nM	1000 nM
[15]	86.1	–	58.2	66	–	–
[16]	96.1	–	53.9	53.3	–	–
[17]	88.9	–	66.3	71.3	–	–
[18]	–	93.3	–	–	84.5	87.2
[19]	86.1	–	34.2	32.2	–	–
[20]	–	70.2	–	–	65.3	69.5
[21]	–	79.6	–	–	53.4	47.3
[22]	–	58	–	–	46.3	59
[23]	–	90.3	–	–	71.6	71.4
[24]	–	74.7	–	–	75.1	67.5
[25]	–	55.6	–	–	57.5	45.2

CC/C(=C(\c1ccccc1)c1ccc(OCCN(C)C)cc1)c1ccccc1 [Tamoxifen]
Conditions	drug sensitivity score
[1]	3.47
[2]	1.12
[3]	0
[4]	0
[5]	0
[6]	1.29
[7]	1.55
[8]	0
[9]	0
[10]	17.1
[11]	0
[12]	4.12
[13]	0
[14]	0

normalised viability [%]
Conditions	3 nM	10 nM	30 nM	100 nM	1000 nM	10000 nM
[15]	100	–	92	116	–	–
[16]	111	–	105	127	–	–
[17]	109	–	100	110	–	–
[18]	–	101	–	–	94.7	40.1
[19]	98.4	–	85.2	103	–	–
[20]	–	100	–	–	106	9.44
[21]	–	110	–	–	100	82.1
[22]	–	83.4	–	–	83.1	98.6
[23]	–	113	–	–	110	120
[24]	–	111	–	–	117	77.5
[25]	–	83.3	–	–	82.8	56.5

CCN(CC)CCOc1ccc(C(=C(Cl)c2ccccc2)c2ccccc2)cc1 [Clomifene]
Conditions	drug sensitivity score
[1]	8.18
[2]	2.27
[3]	1.43
[4]	9.19
[5]	0
[6]	0
[7]	2.83
[8]	3.53
[9]	1.48
[10]	8.71
[11]	0
[12]	5.14
[13]	1.4
[14]	0

normalised viability [%]
Conditions	3 nM	10 nM	30 nM	100 nM	1000 nM	10000 nM
[15]	91.3	–	92.4	91.2	–	–
[16]	88.2	–	94.8	101	–	–
[17]	133	–	130	114	–	–
[18]	–	119	–	–	109	27.5
[19]	116	–	114	104	–	–
[20]	–	98.2	–	–	98.1	6.16
[21]	–	93.4	–	–	95.3	18
[22]	–	115	–	–	117	55.6
[23]	–	86.2	–	–	84	85.2
[24]	–	118	–	–	111	17.1
[25]	–	109	–	–	96.6	36

CN1CCN(c2nc(C3=C(c4c[nH]c5ccccc45)C(=O)NC3=O)c3ccccc3n2)CC1 [Sotrastaurin]
Conditions	drug sensitivity score
[1]	0
[2]	0
[3]	0
[4]	0
[5]	0
[6]	0
[7]	0
[8]	0
[9]	0
[10]	0
[11]	0
[12]	0
[13]	0
[14]	0

normalised viability [%]
Conditions	3 nM	10 nM	30 nM	100 nM	1000 nM	10000 nM
[15]	106	–	111	130	–	–
[16]	115	–	113	119	–	–
[17]	88.9	–	98.8	94.1	–	–
[18]	–	112	–	–	59.1	107
[19]	102	–	105	87.7	–	–
[20]	–	95.6	–	–	93	89.8
[21]	–	110	–	–	118	110
[22]	–	54.1	–	–	81.4	95.1
[23]	–	135	–	–	119	120
[24]	–	112	–	–	109	94.6
[25]	–	82.5	–	–	92.8	74.2
